Here are results for 1 compound from US8501806B2, “Methods for preventing or reducing colon carcinogenesis” (Nogra Pharma Limited, priority 2008, dated 2013).

For data set [1], the system named is HCT-116 cells. As to the kind of experiment: CFSE cell proliferation assay, HCT-116 cells. The data set is classed as cell-based, human. How it is done:
(§1) All reagents used in Examples 1-3 were from Sigma-Aldrich (Milan, Italy) unless specified. Compounds were dissolved as a 25 mM stock solution in culture medium, and the pH of the solution was adjusted to 7.4, if necessary, with NaOH. The human CRC cell lines, HCT-116 and HT-29 (expressing either wild-type or mutated p53 respectively), were maintained in McCoy's 5A supplemented with 10% fetal bovine serum (FBS), 1% penicillin/streptomycin, and 50 μg/ml gentamycin. The murine CRC cell line, CT26, was maintained in RPMI 1640 medium supplemented with 10% FBS and 1% penicillin/streptomycin.
For cell growth assays, serum-starved HCT-116, HT-29, and CT26 cells were plated in appropriate complete medium at 2×10^5 cells/ml/well in 6-well culture dishes and allowed to adhere overnight. Cells were then labeled with carboxyfluorescein diacetate succinimidyl ester (CFSE) (Invitrogen, Milan Italy) at 37° C. according to the manufacturer's instruction. After 30 minutes, the medium was removed and fresh media containing 0.05% bovine serum albumin (BSA), and increasing doses of 5-ASA or disclosed compounds were added. After 24 hours, cells were collected, washed twice with PBS 1×, and then incubated with 5 μg/ml of PI for 15 minutes, at 4° C. in the dark. CFSE and/or PI-positive cells were determined by flow cytometry (Becton Dickinson, FACSCalibur, Milan, Italy). To determine whether the negative effect of compound 14 (2-methoxy-5-amino-N-hydroxybenzamide) on proliferation was reversible, cells were cultured in the presence or absence of compound 14 (1.5 and 3 mM) for 24 hours (1st culture). Afterwards, cells were either left untreated or extensively washed and cultured with medium in the absence of compound 14 for additional 24 hours (2nd culture). The percentage of proliferating cells was then evaluated by flow cytometry.

Data set [2] deals with HT-29 cells. Briefly: CFSE cell proliferation assay, HT-29 cells. The format is cell-based, human. Particulars: FIG. 2; graded doses. How it is done: as §1
For cell growth assays, serum-starved HCT-116, HT-29, and CT26 cells were plated in appropriate complete medium at 2×10^5 cells/ml/well in 6-well culture dishes and allowed to adhere overnight. Cells were then labeled with carboxyfluorescein diacetate succinimidyl ester (CFSE) (Invitrogen, Milan Italy) at 37° C. according to the manufacturer's instruction. After 30 minutes, the medium was removed and fresh media containing 0.05% bovine serum albumin (BSA), and increasing doses of 5-ASA or disclosed compounds were added. […] CFSE and/or PI-positive cells were determined by flow cytometry (Becton Dickinson, FACSCalibur, Milan, Italy). […] The percentage of proliferating cells was then evaluated by flow cytometry.

Data set [3] concerns colonic IEL (intra-epithelial lymphocytes). As to the kind of experiment: Proliferation of normal colonic intra-epithelial lymphocytes (anti-CD3/CD28). The data set is classed as cell-based. The conditions noted are these: FIG. 4A; anti-CD3/CD28, graded doses, 48 hours.
Data set [4] has as its system fibroblasts. Briefly: Proliferation of normal fibroblasts. The conditions noted are these: FIG. 4B; 48 hours. The format is cell-based.
The subject of data set [5] is colitis-associated colon cancer. As to the kind of experiment: AOM/DSS colitis-associated colon cancer. The format is in vivo, Balb/c mice. The conditions noted are these: i.p. 16 mg/kg/mouse every second day for 49 days. How it is done:
Balb/c mice were given a first i.p. injection of AOM (10 mg/kg) on day O, Seven days after the AOM injection, the mice were given 2% DSS in the drinking water for 7 days. One week after the discontinuation of DSS administration, the mice were given a second i.p. injection of AOM (5 mg/kg). Then, 7 days after the second AOM injection, the mice were again given 2% DSS in the drinking water for 7 days. Two weeks later, the mice were randomly divided into two groups receiving i.p. injection of PBS or 16 mg/kg/mouse compound 14 every second day, for 49 days until sacrifice. (To rule out the possibility that compound 14 could interfere with the ongoing mucosal inflammation, treatment was started 2 weeks after the last DSS administration.) Mice were endoscopically screened, and neoplastic lesions were scored as previously described All mice were sacrificed at the end of the study, and colonic samples were used for histological analysis and isolating lamina propria mononuclear cells (LPMC). An aliquot of LPMC was assessed for the expression of CD4, CD8, and CD25 by flow-cytometry using the following antibodies (CD4: cat. 552051, BD Pharmigen, Milan, Italy; CD8: cat. 22150084S and CD25: cat. 22150253, Immunotools, Friesoythe, Germany), while the remaining LPMC were used for extracting RNA and assessing the expression of COX-2, TNFα, and IL-1β by real-time PCR. To this end, the following primers were used: COX-2: FWD: 5′-[…]-3′; REV: 5′-[…]-3′, TNFα: FWD: 5′-[…]-3′; REV: 5′-[…]-3, IL-1β: FWD: 5′-[…]-3′; REV: 5′-[…]-3.
Colonic sections were stained with hematoxylin and eosin (H&E). The degree of inflammation and the presence of neoplastic lesions were evaluated and graded by the same pathologist in a blinded fashion. Immunohistochemistry for PCNA was performed using a PCNA staining kit (ZYMED Laboratories, Carlsbad, Calif., U.S.A.) according to the manufacturer's instructions. […] A polypoidor flat lesion is seen in control and compound 14-treated mice respectively.

Data set [6] relates to 4T1-derived metastasis. Briefly: 4T1 spontaneous metastasis, clonogenic metastasis assay. The format is in vivo, Balb/c mice. Particulars: FIG. 11; daily i.p. 8 mg/kg/mouse, sacrificed at day 35. How it is done:
Spontaneous metastases were measured by adapting methods described previously by Pulaski and Ostrand-Rosenberg (Cancer Research 58, 1486-1493, 1998). 4T1 tumor cells (1×10^5 cells in 100 μl 1×PBS) were injected s.c. in the abdominal mammary gland of 8-10 weeks old female Balb/c mice. Three days after 4T1 injection, mice received daily i.p. administration of compound 14 (8 mg/kg/mouse) or PBS (control). Mice were monitored over the time for weight loss and sacrificed at day 35. Lungs and liver were removed from each mouse, and treated as follows: liver samples were finely minced and digested with an enzyme solution containing 1×PBS, 0.01% BSA, 1 mg/ml hyaluronidase, and 1 mg/ml collagenase type I for 20 min at 37° C. on a platform rocker; lung samples were finely minced and digested with an enzyme cocktail containing 1×PBS, 1 mg/ml collagenase type IV and 10 units/ml elastase for 1 h at […] on a rotating wheel. At the end, samples were filtered through 70 μm nylon cell strainers and washed three times with 1×PBS. The resulting cell preparations were resuspended and plated neat or serially diluted in 10-cm tissue culture dishes in 20 ml of medium containing 60 μM 6-thioguanine. Suspensions were incubated in 10% CO2-air atmosphere at 37° C. for clonogenic growth. […] Total colony-forming cells were calculated on a per-organ basis. […]

In the case of `COc1ccc(N)cc1C(=O)NO` [compound 14, 2-methoxy-5-amino-N-hydroxybenzamide], in data set [1] (FIG. 1, CFSE-labeled HCT 116 cells, increasing doses), the “anti-proliferative effect (percentage of growth inhibition)” value is “pronounced anti-proliferative effect”. Further, in data set [1] (FIG. 1, CFSE-labeled HCT 116 cells, increasing doses, 24 hours), the “potency relative to 5-ASA in inhibiting CRC cell proliferation” value is listed as “about ten times more potent than 5-ASA”. The “proliferation of HCT-116 cells” value in data set [1] (FIG. 2, graded doses) is “dose-dependently inhibited”. Also, in data set [1] (FIG. 3A, increasing doses for 24, 48, and 72 hours), the “time dependence of anti-proliferative effect” value was “time-dependent”. Also, the “reversibility of anti-proliferative effect” value in data set [1] (FIG. 3B, 1.5-3 mM for 24 hours, then washed and cultured 24 hours without compound) is “fully reversible”. For the same compound, the “proliferation of HT-29 cells” value in data set [2] is “dose-dependently inhibited”. In addition, in data set [3], the “proliferation of normal colonic intra-epithelial lymphocytes” value is “did not affect”. The “proliferation of normal fibroblasts” value in data set [4] is “did not affect”. Further, the “multiplicity of neoplastic lesions (polypoid and flat)” value in data set [5] (FIG. 8C) was “significantly reduced both types of lesions”. Further, in data set [5], the “PCNA staining in normal colonic mucosa” value is “no significant change” and the “PCNA staining of neoplastic lesions” value is “confirmed the anti-proliferative effect”. For the same compound, in data set [6], the “number of liver metastatic tumor cells” value is reported as “reduction” and the “number of lung metastatic tumor cells” value is reported as “reduction”.
